Data from patent US12054461B2, “Sulfonylurea derivatives and uses thereof” (NodThera Limited, priority 2019, dated 2024).

Experiments:
[1] = tested on: IL-1β release upon NLRP3 activation in peripheral blood mononuclear cells (PBMC); assay: PBMC IC50 determination assay; assay type: cell-based; settings: sodium salts tested, LPS 1 μg/ml 3 h, compound 30 min, ATP 5 mM 1 h, IL-1β by HTRF
Method: The compounds of the present disclosure were tested for their inhibitory activity against IL-1β release upon NLRP3 activation in peripheral blood mononuclear cells (PBMC).
PBMC were isolated from buffy coats by density gradient centrifugation on Histopaque-1077 (Sigma, cat no. 10771). Isolated cells were seeded into the wells (280,000 cells/well) of a 96-well plate and incubated for 3 h with lipopolysaccharide (LPS, 1 μg/ml diluted 1000× from a 1 mg/ml stock solution). The compounds of the present disclosure were added (a single compound per well) and the cells were incubated for 30 min. Next, the cells were stimulated with ATP (5 mM final concentration diluted 20× from a 100 mM stock solution) for 1 h and the cell culture media from the wells were collected for further analysis.
(§1) The release of IL-1β into the media was determined by quantitative detection of IL-1β in the media using HTRF®, CisBio cat. No. 62HIL1BPEH. Briefly, cell culture supernatant were dispensed directly into the assay plate containing antibodies labelled with the HTRF® donor and acceptor. A microplate spectrophotometer (BMG) was used to detect signals at 655 nm and 620 nm. The detection range of IL-1β HTRF® was 39-6500 pg/ml.

[2] = tested on: IL-1β release upon NLRP3 activation in human whole blood; assay: Whole blood (WB) assay; assay type: cell-based; settings: sodium salts tested, LPS 1 μg/ml 3 h, compound 30 min, ATP 5 mM 1 h, IL-1β by HTRF
Method: The compounds of the present disclosure were tested for their inhibitory activity against IL-1β release upon NLRP3 activation in human whole blood.
Whole blood was drawn from single healthy donors and treated with sodium heparin anticoagulant. Blood was diluted with cell culture media at a 9:5 ratio, seeded in a 96-well plate and incubated for 3 h with lipopolysaccharide (LPS, 1 μg/ml final concentration diluted 1000× from a 1 mg/ml stock solution). The compounds of the present disclosure were added (a single compound concentration per well) and the blood was incubated for 30 min. Next, the blood was stimulated with ATP (5 mM final concentration diluted 20× from a 100 mM stock solution) for 1 h and the cell culture media from the wells were collected for further analysis.
as §1, with “were diluted as appropriate to bring IL-1β levels within the HTRF® detection range (36-6500 pg/ml) and subsequently” for “were”, “dispensed” for “dispensed directly”, “nm.” for “nm. The detection range of IL-1β HTRF® was 39-6500 pg/ml.”

Compound	IC50 [2] [nM]	IC50 [1] [nM]
CC(C)n1cc(N(CCN(C)C)S(=O)(=O)NC(=O)Nc2c3c(cc4c2CCC4)CCC3)cn1 [Compound 9, 1-{[2-(Dimethylamino)ethyl][1-(propan-2-yl)-1H-pyrazol-4-yl]sulfamoyl}-3-(1,2,3,5,6,7-hexahydro-s-indacen-4-yl)urea]	< 1000	< 100
COCCN(c1cnn(C)c1)S(=O)(=O)NC(=O)Nc1c2c(cc3c1CCC3)CCC2 [Compound 1, 1-(1,2,3,5,6,7-Hexahydro-s-indacen-4-yl)-3-[(2-methoxyethyl)(1-methyl-1H-pyrazol-4-yl)sulfamoyl]urea]	1000 to 3000	< 100
COCCCN(c1cnn(C)c1)S(=O)(=O)NC(=O)Nc1c2c(cc3c1CCC3)CCC2 [Compound 7, 1-(1,2,3,5,6,7-Hexahydro-s-indacen-4-yl)-3-[(3-methoxypropyl)(1-methyl-1H-pyrazol-4-yl)sulfamoyl]urea]	3000 to 10000	100 to 500
CN(C)C1CC(N(c2cnn(C)c2)S(=O)(=O)NC(=O)Nc2c3c(cc4c2CCC4)CCC3)C1 (stereo not shown) [Compound 6, 3-{[3-(Dimethylamino)cyclobutyl](1-methyl-1H-pyrazol-4-yl)sulfamoyl}-1-(1,2,3,5,6,7-hexahydro-s-indacen-4-yl)urea]	1000 to 3000	< 100
CN(C)C1CCC(N(c2cnn(C)c2)S(=O)(=O)NC(=O)Nc2c3c(cc4c2CCC4)CCC3)C1 (stereo not shown) [Compound 5, 1-{[3-(Dimethylamino)cyclopentyl](1-methyl-1H-pyrazol-4-yl)sulfamoyl}-3-(1,2,3,5,6,7-hexahydro-s-indacen-4-yl)urea]	3000 to 10000	100 to 500
CN(C)CCN(c1cnn(C)c1)S(=O)(=O)NC(=O)Nc1c2c(cc3c1CCC3)CCC2 [Compound 8, 3-{[2-(Dimethylamino)ethyl](1-methyl-1H-pyrazol-4-yl)sulfamoyl}-1-(1,2,3,5,6,7-hexahydro-s-indacen-4-yl)urea]	< 1000	< 100

Further lines, with some results ahead:

IC50 [2] [nM]	Compound	IC50 [1] [nM]
1000 to 3000	COCC(COC)N(c1cnn(C)c1)S(=O)(=O)NC(=O)Nc1c2c(cc3c1CCC3)CCC2 [Compound 2, 3-[(1,3-Dimethoxypropan-2-yl)(1-methyl-1H-pyrazol-4-yl)sulfamoyl]-1-(1,2,3,5,6,7-hexahydro-s-indacen-4-yl)urea]	100 to 500
1000 to 3000	Cn1cc(N(CC(C)(C)O)S(=O)(=O)NC(=O)Nc2c3c(cc4c2CCC4)CCC3)cn1 [Compound 3, 1-(1,2,3,5,6,7-Hexahydro-s-indacen-4-yl)-3-[(2-hydroxy-2-methylpropyl)(1-methyl-1H-pyrazol-4-yl)sulfamoyl]urea]	100 to 500
1000 to 3000	Cn1cc(N(CCC(C)(C)O)S(=O)(=O)NC(=O)Nc2c3c(cc4c2CCC4)CCC3)cn1 [Compound 4, 1-(1,2,3,5,6,7-Hexahydro-s-indacen-4-yl)-3-[(3-hydroxy-3-methylbutyl)(1-methyl-1H-pyrazol-4-yl)sulfamoyl]urea]	< 100
1000 to 3000	CN(CCN(c1cnn(C)c1)S(=O)(=O)NC(=O)Nc1c2c(cc3c1CCC3)CCC2)C1COC1 [Compound 11, 1-(1,2,3,5,6,7-Hexahydro-s-indacen-4-yl)-3-({2-[methyl(oxetan-3-yl)amino]-ethyl}(1-methyl-1H-pyrazol-4-yl)sulfamoyl)urea]	< 100
10000 to 20000	CN(C)CCCN(c1cnn(C)c1)S(=O)(=O)NC(=O)Nc1c2c(cc3c1CCC3)CCC2 [Compound 10, 3-{[3-(Dimethylamino)propyl](1-methyl-1H-pyrazol-4-yl)sulfamoyl}-1-(1,2,3,5,6,7-hexahydro-s-indacen-4-yl)urea]	100 to 500
